Measured values from ChEMBL document CHEMBL1938230, “6-Position optimization of tricyclic 4-quinolone-based inhibitors of glycogen synthase kinase-3β: discovery of nitrile derivatives with picomolar potency” (Bioorg Med Chem Lett, 2012).

What was measured:
[1] = target: Serine/threonine-protein kinase mTOR (Homo sapiens) (UniProt P42345); assay: Inhibition of human mTOR in HL-60 cells lysate assessed as reduction of labeling of acyl-phosphate ATP probe at 100 nM; format: cell-free
[2] = target: PI4KA/PI4KAP2 (Homo sapiens) (UniProt P42356+A4QPH2); assay: Inhibition of human PI4KA/PI4KAP2 in HL-60 cells lysate assessed as reduction of labeling of acyl-phosphate ATP probe at 100 nM; format: cell-free
[3] = target: T1, Serine/threonine-protein kinase Nek9 (Homo sapiens) (UniProt Q8TD19); assay: Inhibition of human NEK9 in HL-60 cells lysate assessed as reduction of labeling of acyl-phosphate ATP probe at 100 nM; format: cell-free
T1 sequence (whole entry): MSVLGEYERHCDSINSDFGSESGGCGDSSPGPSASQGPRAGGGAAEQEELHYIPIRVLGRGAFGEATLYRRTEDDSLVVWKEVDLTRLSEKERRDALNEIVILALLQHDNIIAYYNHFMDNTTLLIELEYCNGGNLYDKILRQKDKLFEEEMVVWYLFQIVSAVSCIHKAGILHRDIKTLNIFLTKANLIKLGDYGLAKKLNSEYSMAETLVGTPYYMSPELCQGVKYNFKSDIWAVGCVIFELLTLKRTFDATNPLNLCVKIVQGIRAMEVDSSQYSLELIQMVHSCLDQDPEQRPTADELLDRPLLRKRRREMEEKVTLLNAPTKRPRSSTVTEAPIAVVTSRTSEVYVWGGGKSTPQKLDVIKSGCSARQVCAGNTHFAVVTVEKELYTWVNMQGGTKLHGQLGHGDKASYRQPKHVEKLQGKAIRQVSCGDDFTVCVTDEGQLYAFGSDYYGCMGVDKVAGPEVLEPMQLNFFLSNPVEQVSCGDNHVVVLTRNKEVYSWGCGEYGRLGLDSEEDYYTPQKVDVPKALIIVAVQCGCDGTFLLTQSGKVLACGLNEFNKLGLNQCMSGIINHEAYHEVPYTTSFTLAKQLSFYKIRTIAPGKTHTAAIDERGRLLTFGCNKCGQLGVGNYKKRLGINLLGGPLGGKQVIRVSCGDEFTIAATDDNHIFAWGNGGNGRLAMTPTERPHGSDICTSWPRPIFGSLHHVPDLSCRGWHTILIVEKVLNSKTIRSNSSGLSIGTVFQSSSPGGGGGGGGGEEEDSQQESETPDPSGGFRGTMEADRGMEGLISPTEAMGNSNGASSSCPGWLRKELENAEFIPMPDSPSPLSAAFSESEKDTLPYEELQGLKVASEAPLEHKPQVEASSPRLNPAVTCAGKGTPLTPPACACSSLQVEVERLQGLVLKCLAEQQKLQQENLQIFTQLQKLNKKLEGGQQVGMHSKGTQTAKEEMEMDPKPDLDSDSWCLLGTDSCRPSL

[4] = target: T2, Serine/threonine-protein kinase ULK3 (Homo sapiens) (UniProt Q6PHR2); assay: Inhibition of human ULK3 in HL-60 cells lysate assessed as reduction of labeling of acyl-phosphate ATP probe at 100 nM; format: cell-free
T2 sequence (whole entry): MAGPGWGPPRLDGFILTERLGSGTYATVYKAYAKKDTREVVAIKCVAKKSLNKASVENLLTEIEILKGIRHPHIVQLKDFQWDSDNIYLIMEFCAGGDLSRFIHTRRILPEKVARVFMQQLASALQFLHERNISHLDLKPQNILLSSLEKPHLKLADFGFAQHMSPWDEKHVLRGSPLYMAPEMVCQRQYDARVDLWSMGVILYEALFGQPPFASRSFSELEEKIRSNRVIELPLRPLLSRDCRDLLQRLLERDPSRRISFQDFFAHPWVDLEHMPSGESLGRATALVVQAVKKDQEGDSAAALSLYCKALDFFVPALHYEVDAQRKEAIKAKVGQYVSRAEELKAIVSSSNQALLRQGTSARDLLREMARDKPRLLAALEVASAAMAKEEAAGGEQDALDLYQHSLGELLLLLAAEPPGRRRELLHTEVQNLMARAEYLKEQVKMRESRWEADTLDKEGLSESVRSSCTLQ

[5] = target: Dual specificity mitogen-activated protein kinase kinase 2 (Homo sapiens) (UniProt P36507); assay: Inhibition of human MAP2K2 in HL-60 cells lysate assessed as reduction of labeling of acyl-phosphate ATP probe at 100 nM; format: cell-free
[6] = target: Tyrosine-protein kinase ABL (Homo sapiens) (UniProt P00519+P42684); assay: Inhibition of human ABL/ARG in HL-60 cells lysate assessed as reduction of labeling of acyl-phosphate ATP probe at 100 nM; format: cell-free
Tyrosine-protein kinase ABL (Homo sapiens), sequence (P00519 whole entry, looked up): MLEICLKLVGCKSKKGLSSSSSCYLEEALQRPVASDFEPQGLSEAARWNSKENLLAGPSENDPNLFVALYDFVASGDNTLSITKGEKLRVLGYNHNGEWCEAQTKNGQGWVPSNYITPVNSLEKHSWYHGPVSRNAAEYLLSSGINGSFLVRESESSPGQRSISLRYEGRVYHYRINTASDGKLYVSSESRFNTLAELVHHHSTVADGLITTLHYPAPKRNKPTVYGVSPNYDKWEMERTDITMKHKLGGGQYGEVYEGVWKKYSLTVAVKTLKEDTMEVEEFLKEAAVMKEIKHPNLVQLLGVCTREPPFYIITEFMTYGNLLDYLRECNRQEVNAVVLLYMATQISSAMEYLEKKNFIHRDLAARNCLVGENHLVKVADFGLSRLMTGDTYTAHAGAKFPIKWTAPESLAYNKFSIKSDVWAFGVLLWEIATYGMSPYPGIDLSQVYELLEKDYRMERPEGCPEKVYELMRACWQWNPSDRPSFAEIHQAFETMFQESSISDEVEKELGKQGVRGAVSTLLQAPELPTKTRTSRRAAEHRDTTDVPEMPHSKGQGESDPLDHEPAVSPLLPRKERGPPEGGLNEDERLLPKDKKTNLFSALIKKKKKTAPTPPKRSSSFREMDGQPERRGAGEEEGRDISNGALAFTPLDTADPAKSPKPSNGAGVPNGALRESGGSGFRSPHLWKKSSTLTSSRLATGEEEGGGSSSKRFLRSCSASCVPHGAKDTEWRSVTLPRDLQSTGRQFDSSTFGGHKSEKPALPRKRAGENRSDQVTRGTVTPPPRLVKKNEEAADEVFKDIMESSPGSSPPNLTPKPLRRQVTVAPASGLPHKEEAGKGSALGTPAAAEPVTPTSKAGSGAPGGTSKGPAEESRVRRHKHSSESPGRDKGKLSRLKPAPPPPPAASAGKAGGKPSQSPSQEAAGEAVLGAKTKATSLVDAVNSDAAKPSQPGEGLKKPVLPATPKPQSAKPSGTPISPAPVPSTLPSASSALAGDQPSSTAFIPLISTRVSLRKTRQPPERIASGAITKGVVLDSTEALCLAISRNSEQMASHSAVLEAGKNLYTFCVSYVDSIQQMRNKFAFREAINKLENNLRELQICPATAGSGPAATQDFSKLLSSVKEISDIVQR
Tyrosine-protein kinase ABL (Homo sapiens), sequence (P42684 whole entry, looked up): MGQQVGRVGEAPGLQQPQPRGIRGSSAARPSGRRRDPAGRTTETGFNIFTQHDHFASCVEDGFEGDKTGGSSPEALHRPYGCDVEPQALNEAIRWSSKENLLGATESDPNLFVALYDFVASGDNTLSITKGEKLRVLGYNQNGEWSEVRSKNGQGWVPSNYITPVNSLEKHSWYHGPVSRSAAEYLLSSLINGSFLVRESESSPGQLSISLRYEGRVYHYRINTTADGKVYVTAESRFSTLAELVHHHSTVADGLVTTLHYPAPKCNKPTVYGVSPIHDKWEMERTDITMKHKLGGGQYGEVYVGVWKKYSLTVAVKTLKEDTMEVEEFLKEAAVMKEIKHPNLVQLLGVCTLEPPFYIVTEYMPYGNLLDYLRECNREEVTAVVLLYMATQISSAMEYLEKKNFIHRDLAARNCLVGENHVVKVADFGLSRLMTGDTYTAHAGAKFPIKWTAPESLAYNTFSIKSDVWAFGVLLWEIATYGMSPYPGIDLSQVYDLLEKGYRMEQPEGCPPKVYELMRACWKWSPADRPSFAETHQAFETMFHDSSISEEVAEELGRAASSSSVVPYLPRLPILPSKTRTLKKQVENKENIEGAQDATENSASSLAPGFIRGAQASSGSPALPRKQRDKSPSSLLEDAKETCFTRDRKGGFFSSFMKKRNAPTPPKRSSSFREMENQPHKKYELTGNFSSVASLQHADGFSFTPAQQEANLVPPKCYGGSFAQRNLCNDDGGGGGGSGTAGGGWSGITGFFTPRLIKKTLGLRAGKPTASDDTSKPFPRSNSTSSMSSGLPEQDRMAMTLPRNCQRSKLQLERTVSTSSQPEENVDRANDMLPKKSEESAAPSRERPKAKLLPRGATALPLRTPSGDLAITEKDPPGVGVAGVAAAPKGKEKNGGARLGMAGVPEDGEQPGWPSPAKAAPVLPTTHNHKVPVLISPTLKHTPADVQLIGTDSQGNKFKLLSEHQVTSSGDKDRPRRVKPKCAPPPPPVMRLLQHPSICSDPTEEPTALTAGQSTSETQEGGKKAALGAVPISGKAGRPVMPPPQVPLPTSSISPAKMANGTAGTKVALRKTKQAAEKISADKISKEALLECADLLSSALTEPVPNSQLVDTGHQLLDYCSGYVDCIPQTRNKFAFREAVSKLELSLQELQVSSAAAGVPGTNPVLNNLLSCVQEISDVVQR

[7] = target: Tyrosine-protein kinase CSK (Homo sapiens) (UniProt P41240); assay: Inhibition of human CSK in HL-60 cells lysate assessed as reduction of labeling of acyl-phosphate ATP probe at 100 nM; format: cell-free
Tyrosine-protein kinase CSK (Homo sapiens), sequence (P41240 2-450 limits assumed): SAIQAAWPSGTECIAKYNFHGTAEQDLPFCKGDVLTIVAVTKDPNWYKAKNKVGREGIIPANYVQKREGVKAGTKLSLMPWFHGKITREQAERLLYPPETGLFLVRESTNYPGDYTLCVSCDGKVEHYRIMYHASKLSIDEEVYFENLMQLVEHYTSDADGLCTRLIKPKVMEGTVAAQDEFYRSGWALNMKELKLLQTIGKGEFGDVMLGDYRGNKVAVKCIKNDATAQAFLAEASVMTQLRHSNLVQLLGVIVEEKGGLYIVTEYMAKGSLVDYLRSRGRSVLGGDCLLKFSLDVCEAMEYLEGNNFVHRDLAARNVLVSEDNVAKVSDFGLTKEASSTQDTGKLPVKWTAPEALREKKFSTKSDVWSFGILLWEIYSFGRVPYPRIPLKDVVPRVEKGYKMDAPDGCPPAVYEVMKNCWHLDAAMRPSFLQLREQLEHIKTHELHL

[8] = target: Tyrosine-protein kinase JAK1 (Homo sapiens) (UniProt P23458); assay: Inhibition of human JAK1 domain1 in HL-60 cells lysate assessed as reduction of labeling of acyl-phosphate ATP probe at 100 nM; format: cell-free
[9] = target: Serine/threonine-protein kinase B-raf (Homo sapiens) (UniProt P15056); assay: Inhibition of human BRAF in HL-60 cells lysate assessed as reduction of labeling of acyl-phosphate ATP probe at 100 nM; format: cell-free
Serine/threonine-protein kinase B-raf (Homo sapiens), sequence (P15056 whole entry): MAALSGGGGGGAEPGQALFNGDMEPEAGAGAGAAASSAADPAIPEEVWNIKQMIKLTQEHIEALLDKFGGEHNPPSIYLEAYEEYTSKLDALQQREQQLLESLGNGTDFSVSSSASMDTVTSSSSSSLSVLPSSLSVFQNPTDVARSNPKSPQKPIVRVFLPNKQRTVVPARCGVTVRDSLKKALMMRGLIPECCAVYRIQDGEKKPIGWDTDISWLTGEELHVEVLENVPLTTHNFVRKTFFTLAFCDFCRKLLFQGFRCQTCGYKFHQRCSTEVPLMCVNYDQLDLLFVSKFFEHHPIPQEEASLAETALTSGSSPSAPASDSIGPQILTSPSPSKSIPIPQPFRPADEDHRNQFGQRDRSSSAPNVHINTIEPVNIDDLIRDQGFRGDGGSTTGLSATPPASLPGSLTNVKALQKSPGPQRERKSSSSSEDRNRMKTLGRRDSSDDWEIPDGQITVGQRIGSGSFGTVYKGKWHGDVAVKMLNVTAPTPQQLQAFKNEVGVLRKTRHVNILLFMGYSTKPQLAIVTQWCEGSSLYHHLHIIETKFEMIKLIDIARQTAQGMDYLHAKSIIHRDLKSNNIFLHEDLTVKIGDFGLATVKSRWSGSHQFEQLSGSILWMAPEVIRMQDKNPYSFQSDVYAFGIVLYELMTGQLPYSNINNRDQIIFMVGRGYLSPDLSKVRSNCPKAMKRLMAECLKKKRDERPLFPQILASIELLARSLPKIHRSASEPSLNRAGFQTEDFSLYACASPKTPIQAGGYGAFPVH

[10] = target: Interleukin-1 receptor-associated kinase 1 (Homo sapiens) (UniProt P51617); assay: Inhibition of human IRAK1 in HL-60 cells lysate assessed as reduction of labeling of acyl-phosphate ATP probe at 100 nM; format: cell-free
[11] = target: Glycogen synthase kinase-3 beta (Homo sapiens, UniProt P49841); assay: Inhibition of human GSK3-beta in HL-60 cells lysate assessed as reduction of labelling of acyl-phosphate ATP probe at 100 nM; format: cell-free
[12] = target: Mitogen-activated protein kinase 1 (Homo sapiens) (UniProt P28482); assay: Inhibition of human Erk2 in HL-60 cells lysate assessed as reduction of labeling of acyl-phosphate ATP probe at 100 nM; format: cell-free
Mitogen-activated protein kinase 1 (Homo sapiens), sequence (P28482 whole entry): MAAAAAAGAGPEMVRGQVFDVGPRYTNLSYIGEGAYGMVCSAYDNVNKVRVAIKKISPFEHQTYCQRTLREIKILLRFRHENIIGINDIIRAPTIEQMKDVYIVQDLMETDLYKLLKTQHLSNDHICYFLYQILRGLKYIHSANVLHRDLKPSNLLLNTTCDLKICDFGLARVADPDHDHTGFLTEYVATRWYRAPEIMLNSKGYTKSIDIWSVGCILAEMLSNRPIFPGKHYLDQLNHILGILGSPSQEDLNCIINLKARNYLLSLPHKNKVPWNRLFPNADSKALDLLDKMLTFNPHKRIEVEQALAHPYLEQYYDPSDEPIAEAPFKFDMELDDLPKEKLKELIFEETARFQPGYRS

[13] = target: Mitogen-activated protein kinase 14 (Homo sapiens) (UniProt Q16539); assay: Inhibition of human P38alpha in HL-60 cells lysate assessed as reduction of labeling of acyl-phosphate ATP probe at 100 nM; format: cell-free
[14] = target: Cyclin-dependent kinase 7 (Homo sapiens) (UniProt P50613); assay: Inhibition of human CDK7 in HL-60 cells lysate assessed as reduction of labeling of acyl-phosphate ATP probe at 100 nM; format: cell-free
[15] = target: Cyclin-dependent kinase 9 (Homo sapiens) (UniProt P50750); assay: Inhibition of human CDK9 in HL-60 cells lysate assessed as reduction of labeling of acyl-phosphate ATP probe at 100 nM; format: cell-free
Cyclin-dependent kinase 9 (Homo sapiens), sequence (P50750 whole entry): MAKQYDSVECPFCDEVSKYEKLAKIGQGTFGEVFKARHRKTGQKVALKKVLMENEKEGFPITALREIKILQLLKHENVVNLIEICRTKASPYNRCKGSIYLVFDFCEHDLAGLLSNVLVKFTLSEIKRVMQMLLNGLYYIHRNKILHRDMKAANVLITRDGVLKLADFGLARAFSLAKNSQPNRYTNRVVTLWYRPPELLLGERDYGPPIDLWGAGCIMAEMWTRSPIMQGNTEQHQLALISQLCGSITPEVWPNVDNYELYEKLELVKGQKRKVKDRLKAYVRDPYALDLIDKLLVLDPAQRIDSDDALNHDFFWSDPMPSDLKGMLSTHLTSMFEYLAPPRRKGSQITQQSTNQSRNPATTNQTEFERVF

[16] = target: Mitogen-activated protein kinase 7 (Homo sapiens) (UniProt Q13164); assay: Inhibition of human Erk5 in HL-60 cells lysate assessed as reduction of labeling of acyl-phosphate ATP probe at 100 nM; format: cell-free
Mitogen-activated protein kinase 7 (Homo sapiens), sequence (Q13164 2-816 limits assumed): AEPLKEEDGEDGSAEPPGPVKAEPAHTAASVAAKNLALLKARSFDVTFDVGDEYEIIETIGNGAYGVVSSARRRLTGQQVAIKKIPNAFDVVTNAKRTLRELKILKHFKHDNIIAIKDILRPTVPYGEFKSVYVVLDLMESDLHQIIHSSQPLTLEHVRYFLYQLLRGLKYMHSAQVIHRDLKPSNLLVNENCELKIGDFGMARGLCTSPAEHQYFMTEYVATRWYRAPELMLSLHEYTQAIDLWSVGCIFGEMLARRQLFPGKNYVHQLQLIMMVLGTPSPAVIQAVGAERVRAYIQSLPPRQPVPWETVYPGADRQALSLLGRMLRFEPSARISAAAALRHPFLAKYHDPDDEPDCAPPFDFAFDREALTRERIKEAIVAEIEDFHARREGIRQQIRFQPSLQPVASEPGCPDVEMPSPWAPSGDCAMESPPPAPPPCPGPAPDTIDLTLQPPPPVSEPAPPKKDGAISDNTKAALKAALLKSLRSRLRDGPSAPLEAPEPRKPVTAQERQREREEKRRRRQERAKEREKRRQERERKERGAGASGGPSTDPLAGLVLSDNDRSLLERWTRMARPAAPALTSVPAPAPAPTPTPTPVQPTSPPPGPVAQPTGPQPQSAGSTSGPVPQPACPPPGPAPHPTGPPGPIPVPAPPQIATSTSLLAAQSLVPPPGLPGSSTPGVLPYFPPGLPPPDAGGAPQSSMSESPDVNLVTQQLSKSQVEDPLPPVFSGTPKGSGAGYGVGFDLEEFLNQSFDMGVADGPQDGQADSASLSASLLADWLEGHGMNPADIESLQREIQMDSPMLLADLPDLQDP

[17] = target: STE20-like serine/threonine-protein kinase SLK (Homo sapiens) (UniProt Q9H2G2); assay: Inhibition of human SLK in HL-60 cells lysate assessed as reduction of labeling of acyl-phosphate ATP probe at 100 nM

| SMILES | inhibition [1] [%] | inhibition [2] [%] | inhibition [3] [%] | inhibition [4] [%] | inhibition [5] [%] | inhibition [6] [%] | inhibition [7] [%] | inhibition [8] [%] | inhibition [9] [%] | inhibition [10] [%] | inhibition [11] [%] | inhibition [12] [%] | inhibition [13] [%] | inhibition [14] [%] | inhibition [15] [%] | inhibition [16] [%] | inhibition [17] [%] |
| --- | --- | --- | --- | --- | --- | --- | --- | --- | --- | --- | --- | --- | --- | --- | --- | --- | --- |
| C[C@H]1COc2c(NCCCn3cccn3)c(F)c(N)c3c(=O)c(C#N)cn1c23 | < 35 | < 35 | < 35 | < 35 | < 35 | < 35 | < 35 | < 35 | < 35 | < 35 | 99.2 | < 35 | < 35 | < 35 | < 35 | < 35 | < 35 |
| C[C@H]1COc2c(NCCCc3ccccn3)c(F)c(N)c3c(=O)c(C#N)cn1c23 | < 35 | < 35 | < 35 | < 35 | < 35 | < 35 | < 35 | < 35 | < 35 | < 35 | > 99.5 | < 35 | < 35 | < 35 | < 35 | < 35 | < 35 |
| C[C@H]1COc2c(NCCCn3cccn3)c(F)c(N)c3c(=O)c(C(=O)O)cn1c23 | < 35 | < 35 | < 35 | < 35 | < 35 | < 35 | < 35 | < 35 | < 35 | < 35 | 87.8 | < 35 | < 35 | < 35 | < 35 | < 35 | < 35 |
| C[C@H]1COc2c(NCCCc3ccccn3)c(F)c(N)c3c(=O)c(C(=O)O)cn1c23 | < 35 | < 35 | < 35 | < 35 | < 35 | < 35 | < 35 | < 35 | < 35 | < 35 | 82.9 | < 35 | < 35 | < 35 | < 35 | < 35 | < 35 |
